Results from ChEMBL document CHEMBL1201862, “PubChem BioAssay data set” (2004).
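Cultured in 96-well plates, cells were exposed to test compound for 48 hours across five concentrations. Abbreviation: GI50, concentration required for 50% inhibition of growth.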 Active and inactive are the calls of the source. No stated cut-off is given here; in the data, active = GI50 up to about 1.1 µM and inactive = higher.

Legend:
Test in all cases: NCI anticancer screen, dose series, 48 h
[1] = tested on: DMS-114
[2] = tested on: SNB-78
[3] = tested on: RXF 631
[4] = tested on: XF498
[5] = tested on: DLD-1
[6] = tested on: LXFL 529
[7] = tested on: MDA-N
[8] = tested on: M19-MEL
[9] = tested on: HOP-18

| Structure (SMILES) | GI50 [2] | GI50 [5] | GI50 [6] | GI50 [7] | further results |
| --- | --- | --- | --- | --- | --- |
| C[C@]1(CO)CCC[C@@]2(C)C1CC[C@H]1CC3C[C@]12CC[C@]3(C)O (some centres undefined) | 27.1 µM (inactive) | 32.4 µM (inactive) | 2.86 µM (inactive) | – | GI50 [1]: 40.2 µM (inactive); GI50 [3]: 42.3 µM (inactive); GI50 [4]: 47.1 µM (inactive) |
| C[C@@H]1[C@H](O)CC2=C(CC[C@@H](O)C2(C)C)[C@@]1(CO)CCc1ccoc1 | – | – | – | > 50 µM (inactive) | – |
| CCOC(=O)/C(C(=O)c1ccc[nH]1)=C1/CCCN1C | – | – | – | > 100 µM (inactive) | – |
| CN1N=C2NCCNC3=NN(C)/C(=N/CC/N=C/1S2)S3 | > 100 µM (inactive) | > 100 µM (inactive) | > 100 µM (inactive) | – | GI50 [8]: > 100 µM (inactive); GI50 [9]: > 100 µM (inactive) |
| CCN(CC)C(=S)SC(=S)N(CC)CC | – | – | – | 43.4 µM (inactive) | – |
| COc1cc2c[n+](C)c3c4cc(OC)c(OC)cc4c(OCCCCCCCCOc4cc5c6cc(OC)c(OC)cc6c[n+](C)c5c5cc(OC)c(OC)cc45)cc3c2cc1OC | > 100 µM (inactive) | > 100 µM (inactive) | > 100 µM (inactive) | – | GI50 [1]: 22.1 µM (inactive); GI50 [8]: 53.1 µM (inactive); GI50 [4]: > 100 µM (inactive); GI50 [9]: > 100 µM (inactive) |
| COc1cc(C)c(O)c(C(=O)O)c1 | > 100 µM (inactive) | > 100 µM (inactive) | > 100 µM (inactive) | – | GI50 [1]: > 100 µM (inactive); GI50 [8]: > 100 µM (inactive); GI50 [4]: > 100 µM (inactive); GI50 [9]: > 100 µM (inactive) |
| CCOC(=O)Oc1c(OC)cc(C(=O)NC2CCc3cc(OC)c(OC)c(OC)c3-c3ccc(SC)c(=O)cc32)cc1OC (centres undefined) | 0.0489 µM (active) | 0.0723 µM (active) | 0.0386 µM (active) | – | GI50 [1]: 0.0261 µM (active); GI50 [8]: 0.047 µM (active); GI50 [4]: 0.0681 µM (active) |
| O=C(/C=C/c1cccc(Oc2ccccc2)c1)NCc1ccc(C(=O)NCCc2ccccc2)cc1 | – | – | – | > 100 µM (inactive) | – |
| CCCNC(=S)N/N=C1\C(=O)Nc2ccccc21 | – | – | – | > 100 µM (inactive) | – |
| O=[N+]([O-])c1cc2c([N+](=O)[O-])cccc2o1 | – | – | – | 7.93 µM (inactive) | – |
| CCOC(=O)C1=CC(C)(C(=O)OCC)Nc2c(nc(SC)n(C)c2=O)N1 (centres undefined) | – | – | – | > 10 µM (inactive) | – |
| CC1CCN(CC(=O)N2c3ccccc3Sc3cc4ccccc4cc32)CC1 | – | – | – | > 100 µM (inactive) | – |
| Cn1c2ccccc2c(=NNc2ccc(S(N)(=O)=O)cc2)c2ccccc21 | – | – | – | 15.9 µM (inactive) | – |
| Cc1ccc2c(ccc3[nH]cc(CNc4ccc(NS(C)(=O)=O)cc4)c32)n1 | – | – | – | 17.5 µM (inactive) | – |
| COC(=O)C(C#N)=C1c2ccccc2Oc2ccccc21 | 28.6 µM (inactive) | > 100 µM (inactive) | 29.8 µM (inactive) | – | GI50 [1]: 32.7 µM (inactive); GI50 [8]: 60.1 µM (inactive); GI50 [4]: > 100 µM (inactive) |

| Structure (SMILES) | GI50 [2] | GI50 [5] | GI50 [6] | GI50 [7] | further results |
| --- | --- | --- | --- | --- | --- |
| O=C1c2ccccc2C2CCC1c1ccccc12 (centres undefined) | 29.9 µM (inactive) | 33.5 µM (inactive) | 36.3 µM (inactive) | – | GI50 [1]: 19.4 µM (inactive); GI50 [8]: 25.6 µM (inactive); GI50 [4]: 29.5 µM (inactive); GI50 [9]: 73.6 µM (inactive) |
| Cc1ccsc1/C=N/Nc1cc(C)c2ccccc2n1 | – | – | – | 14.5 µM (inactive) | – |
| CCN(C(=O)/C=C/c1ccco1)c1ccccc1 | – | – | – | > 100 µM (inactive) | – |
| COc1ccc(C2c3cc4c(cc3OC(N3CCOCC3)C2C)OCO4)cc1 (centres undefined) | – | – | – | 16.9 µM (inactive) | – |
| CC(C)(C)OC(=O)NCC(=O)NC1CC=CCC1NC(=O)CNC(=O)OC(C)(C)C (centres undefined) | – | – | – | > 100 µM (inactive) | – |
| CC(C)(c1ccccc1)c1ccc(OC#N)cc1 | > 100 µM (inactive) | > 44.5 µM (inactive) | > 78.3 µM (inactive) | – | GI50 [1]: 28.4 µM (inactive); GI50 [8]: > 60.1 µM (inactive); GI50 [4]: 44.6 µM (inactive); GI50 [9]: > 100 µM (inactive) |
| CC(C)(C)c1cc(C(C)(C)C)c(P=C(Cl)Cl)c(C(C)(C)C)c1 (centres undefined) | – | – | – | > 100 µM (inactive) | – |
| C=CCCC(CCC=C)(C(=O)O)C(=O)O | – | – | – | > 100 µM (inactive) | – |
| Cc1cn([C@H]2C[C@](C)(CO)N(C)O2)c(=O)[nH]c1=O | – | – | – | > 100 µM (inactive) | – |
| Cc1cccc2c(=O)c3c(O)cc4c(c3n(C)c12)C=CC(C)(C)O4 | – | – | – | 35.6 µM (inactive) | – |
| CC1(C)C(c2ccccc2)=NN(O)c2ccccc21 | > 100 µM (inactive) | > 100 µM (inactive) | > 100 µM (inactive) | – | GI50 [8]: > 100 µM (inactive); GI50 [9]: > 100 µM (inactive) |
| CC(C)(C)C1=C(Br)C(C(C)(C)C)OP1(=O)O (centres undefined) | – | – | – | > 100 µM (inactive) | – |
| Oc1cc(-c2cccc(OC(F)(F)F)c2)nc2cc3c(cc12)OCO3 | – | – | – | 0.0143 µM (active) | – |
| O=C(NC(=S)NC(=O)c1cc(O)c(O)c(O)c1)c1cc(O)c(O)c(O)c1 | – | – | – | 2.65 µM (inactive) | – |
| CC(Oc1ccc2c(-c3ccccc3)cc(=O)oc2c1)C(=O)O (centres undefined) | > 100 µM (inactive) | > 100 µM (inactive) | > 100 µM (inactive) | – | GI50 [1]: > 100 µM (inactive); GI50 [8]: > 100 µM (inactive); GI50 [4]: > 100 µM (inactive); GI50 [9]: > 100 µM (inactive) |
